Columns and labels:
human RBP4 = biological target: T1, human RBP4 (Homo sapiens, UniProt P02753); assay: Binding assay by Retinol-RBP4-TTR ELISA (human type ELISA); details: retinol 0.5 μM, read-out: human RBP4 binding inhibitory activity (IC50 nM)
T1 construct: the culture supernatant containing secreted/expressed hRBP4-His was recovered; His tag (His6, read from the HISENU oligo); made in house; host or cells: FreeStyle293 expression system (Invitrogen), secreted into the culture supernatant
Procedure: The action of the compound of the present invention to inhibit the binding between RBP4, and retinol and TTR was evaluated using the Retinol-RBP4-TTR ELISA (human type ELISA) system shown below.
The binding assay was performed by an ELISA system (Retinol-RBP4-TTR ELISA) for detecting retinol-RBP4-TTR conjugate by streptavidin-biotin reaction.
His-tagged human RBP4 used was prepared in the above-mentioned 1C.
Biotinylated human TTR used was prepared in the above-mentioned 1E.
Streptavidin (20 μl) (10 μg/ml Streptavidin type II (Wako Pure Chemical Industries, Ltd.), 10 mM Tris-HCl (pH 7.5), 10 mM NaCl) was added to a 384 well black maxisorp plate (Nunc), and the plate was subjected to centrifugation (1000 rpm, 1 min) and coated overnight at 4° C. The plate was washed twice with PBST (PBS, 0.05% Tween 20, 100 μl/well) and blocked with 25% Block Ace (Snow Brand Milk Products Co., Ltd., PBS, 100 μl/well). The plate was subjected to centrifugation (1000 rpm, 1 min) and incubated at room temperature for 4 hr or overnight at 4° C. The plate was washed twice with PBST (PBS, 0.05% Tween 20, 100 μl/well), and biotinylated human TTR (stock solution concentration 1.3 mg/ml) diluted 1000-fold with PBST was added at 20 μl/well. The plate was subjected to centrifugation (1000 rpm, 1 min) and stood still at room temperature for 1.5 hr or overnight at 4° C. The plate was washed 3 times with PEST (100 μl/well), and His-tagged human RBP4 (stock solution concentration 0.96 mg/ml) diluted 4000-fold with a reaction buffer (50 mM Tris-HCl, 150 mM NaCl, 0.005% Tween 20, 1 mM DTT, 0.1% BSA) was added at 10 μl/well. The dilution series (8 doses from 10 mM, 200-fold concentration) of the compound was prepared with DMSO, and 1 μl of each was added to a reaction buffer (200 μl) containing retinol (0.5 μM) (Sigma-Aldrich Co.). A reaction buffer (200 μl) containing retinol and added with DMSO was used as a positive control, and reaction buffer (200 μl) free of retinol and added with DMSO was used as a negative control. Mixed solutions of retinol and the compound were added to the plate at 15 μl/well. The mixture was stirred in a platemixer, subjected to centrifugation (1000 rpm, 1 min) and reacted at room temperature for 2 hr. A 35% Block Ace solution diluted with the reaction buffer was added at 10 μl/well, centrifuged (1000 rpm, 1 min) and reacted at room temperature for 30 min. The plate was washed 3 times with PBST (100 μl/well) and SuperSignal ELISA Femto Maximum Sensitivity Substrate reagent (PIERCE) was added at 30 μl/well, and the luminescence was measured by a platereader (Wallac).
The binding activity rate of the compound was determined by 100×(test compound value−negative control value)/(positive control value−negative control value). The binding inhibitory activity (IC50) was calculated from the binding activity rate at each compound concentration using a graph drawing software, Prism (GraphPad Software Inc.).

RBP4 = biological target: T2, RBP4 (Mus musculus, UniProt Q00724); assay: Blood RBP4 lowering action in C57BL/6J mouse, single oral administration; type: in vivo; details: plasma, mean±SD n=5; for RBP4 (% of initial/Control) 0 hr later: 0 hr value before administration, 50 mg/kg oral; for RBP4 (% of initial/Control) 4 hr later: 4 hr after 50 mg/kg oral; for RBP4 (% of initial/Control) 7 hr later: 7 hr after 50 mg/kg oral; for RBP4 (% of initial/Control) 24 hr later: 24 hr after 50 mg/kg oral
T2 construct: from tissue; host or cells: plasma of male C57BL/6J mice (Charles River Laboratories Japan Inc.)
Procedure: A blood RBP4 lowering action of the compound of the present invention was evaluated using C57BL/6J mouse.
Male 7- to 15-week-old C57BL/6J mice (Charles River Laboratories Japan Inc.) were individually bred for acclimation for 4-6 days under conditions with free access to CE-2 solid food (CLEA Japan, Inc.), and grouped based on the body weight (5 per group). The next day of grouping, blood samples were collected from the orbital venous plexus, and plasma was separated (0 hr value). Thereafter, the test compounds (Examples 1, 13, 15, 16, 17, 27 and 34) were orally administered at a dose of 50 mg/kg (solvent: 0.5% methylcellulose solution (10 mL/kg)). At 4, 7 and 24 hr after administration of the compounds, blood samples were collected from the orbital venous plexus, and plasma was separated. A 0.5% methylcellulose solution (10 mL/kg) was orally administered to the control group.
The RBP4 level of the collected plasma was measured by ELISA. RBP4 was quantified by the following steps using a rabbit, anti-mouse RBP4 polyclonal antibody (Hokudo Co., Ltd). A 96 well ELISA plate was coated with 50 μg/ml of the antibody (100 μL) and stood at 4° C. overnight. After blocking with BlockAce (DAINIPPON PHARMACEUTICAL CO., LTD.), mouse RBP4 or a sample (100 μL) was added and the plate was stood at room temperature for 2 hr. After washing with PBS-0.5% Tween 20, HRP-labeled anti-RBP4 antibody (prepared by labeling RBP4 polyclonal antibody (Hokudo Co., Ltd) with HRP (DOJINDO LABORATORIES)) was added by 100 μL, and the plate was stood at room temperature for 1 hr. After washing, TMB (Dako Cytomations) was added, and the mixture was stood at room temperature for 20 min to allow color development, and the reaction was quenched with 2N sulfuric acid. Thereafter, the absorbance at A450 nm was measured on a platereader. The amount of change from the initial value of each animal was determined as a relative value from the control group (% of initial/Control) at each time point. The results are shown in the following in mean±standard deviation (n=5).

Zucker fa/fa rats = assay: Hypoglycemic action in Zucker fa/fa rats (Experimental Example 4A); type: in vivo, rat; details: 30 mg/kg oral for 2 weeks
Procedure: A hypoglycemic action of the compound of the present invention was evaluated using Zucker fa/fa rats.
Male 19-week-old Zucker fa/fa rats (Takeda Pharmaceutical Company Limited) were bred in group on CE-2 solid food (CLEA Japan, Inc.) until 12-week-old, thereafter bred on high-fat diet D06110702 (LSG Corporation) for acclimation under conditions with free access to food. At 19-week-old, the rats were grouped based on the body weight, blood glucose level, glycated hemoglobin level and blood RBP4 level value (6 per group). Thereafter, the test compound (Example 34) was orally administered at a dose of 30 mg/kg (solvent: 0.5% methylcellulose solution (5 mL/kg)) for 2 weeks. After 24 hr of the final administration of the compound, blood samples were collected from the tail vein, and plasma was separated. Using the collected plasma, (1) RBP4 concentration, (2) glycated hemoglobin level and (3) blood glucose level were measured. (1) was quantified according to the protocol described in Experimental Example 3. (2) was measured using Tosoh Corporation automatic glycohemoglobin analyzer (HLC-723 GHbV A1c2.2 or HLC-723G7 GHbV A1c2.2), and (3) was measured using Hitachi full-automatic analyzer (7070 or 7080), respectively.
A 0.5% methylcellulose solution (5 mL/kg) was orally administered to the control group. […] The results are shown in the following in mean±standard deviation (n=6). In the following Table, glycated hemoglobin change is obtained by subtracting the value before administration from that after administration.

Compound	IC50 (human RBP4) [nM]	RBP4 (% of initial/Control) 0 hr later (RBP4)	RBP4 (% of initial/Control) 4 hr later (RBP4)	RBP4 (% of initial/Control) 7 hr later (RBP4)	RBP4 (% of initial/Control) 24 hr later (RBP4)	also measured
O=C(O)CCC1CCN(c2cccc(C(F)(F)F)c2Cl)C1 (stereo not shown) [Example 14, 3-{1-[2-chloro-3-(trifluoromethyl)phenyl]pyrrolidin-3-yl}propanoic acid]	39	–	–	–	–	–
O=C(O)CCC1CCC(c2cc(C(F)(F)F)cc(C(F)(F)F)c2)O1 (racemic) [Example 34, 3-{5-[3,5-bis(trifluoromethyl)phenyl]tetrahydrofuran-2-yl}propanoic acid]	26	100.0 ± 5.6 % of initial/Control	37.4 ± 2.4 % of initial/Control	34.8 ± 2.6 % of initial/Control	107.4 ± 15.3 % of initial/Control	blood RBP4 concentration (in words) (Zucker fa/fa rats): significant decrease; blood glucose level (in words) (Zucker fa/fa rats): significant decrease; glycated hemoglobin change (in words) (Zucker fa/fa rats): significant decrease; blood glucose level (Zucker fa/fa rats; 24 hr after final administration, mean±SD n=6): 157.2 ± 50.6 mg/dL; glycated hemoglobin change (%) (Zucker fa/fa rats; value after minus before administration, mean±SD n=6): −1.72 ± 0.52%; RBP4 (Zucker fa/fa rats; plasma, 24 hr after final administration, mean±SD n=6): 5.2 ± 0.2 µg/mL
O=C(O)CN1CC(c2cc(C(F)(F)F)cc(C(F)(F)F)c2)CC1=O (stereo not shown) [Example 48, {4-[3,5-bis(trifluoromethyl)phenyl]-2-oxopyrrolidin-1-yl}acetic acid]	210	–	–	–	–	–
O=C(O)COC1CCN(c2ccc(Cl)c(C(F)(F)F)c2)C1 (stereo not shown) [Example 27, calcium ({1-[4-chloro-3-(trifluoromethyl)phenyl]pyrrolidin-3-yl}oxy)acetate]	140	100.0 ± 2.1 % of initial/Control	56.2 ± 1.7 % of initial/Control	56.0 ± 1.6 % of initial/Control	59.6 ± 2.1 % of initial/Control	–
O=C(O)CCC1CCN(c2ccc(Cl)c(C(F)(F)F)c2)C1 (stereo not shown) [Example 13, 3-{1-[4-chloro-3-(trifluoromethyl)phenyl]pyrrolidin-3-yl}propanoic acid]	26	100.0 ± 10.9 % of initial/Control	54.5 ± 1.2 % of initial/Control	56.5 ± 2.5 % of initial/Control	106.6 ± 3.9 % of initial/Control	–

Now from value to molecule, other results behind:

IC50 (human RBP4) [nM]	RBP4 (% of initial/Control) 0 hr later (RBP4)	RBP4 (% of initial/Control) 4 hr later (RBP4)	RBP4 (% of initial/Control) 7 hr later (RBP4)	RBP4 (% of initial/Control) 24 hr later (RBP4)	Compound	also measured
38	–	–	–	–	O=C(O)C[S+]([O-])C1CCN(c2cc(C(F)(F)F)cc(C(F)(F)F)c2)C1 (stereo not shown) [Example 2, ({1-[3,5-bis(trifluoromethyl)phenyl]pyrrolidin-3-yl}sulfinyl)acetic acid]	–
320	100.0 ± 4.4 % of initial/Control	51.0 ± 1.4 % of initial/Control	49.0 ± 1.1 % of initial/Control	58.2 ± 2.7 % of initial/Control	O=C(O)CCN1CCN(c2cc(C(F)(F)F)cc(C(F)(F)F)c2)C1=O [Example 15, 3-{3-[3,5-bis(trifluoromethyl)phenyl]-2-oxoimidazolidin-1-yl}propanoic acid]	–
13	–	–	–	–	O=C(O)CSC1CCN(c2cc(C(F)(F)F)cc(C(F)(F)F)c2)C1 (single isomer, unassigned) [Example 11, ({1-[3,5-bis(trifluoromethyl)phenyl]pyrrolidin-3-yl}sulfanyl)acetic acid]	–
27	–	–	–	–	O=C(O)CSC1CCN(c2cc(C(F)(F)F)cc(C(F)(F)F)c2)C1 (single isomer, unassigned) [Example 10, ({1-[3,5-bis(trifluoromethyl)phenyl]pyrrolidin-3-yl}sulfanyl)acetic acid]	–
81	–	–	–	–	O=C(O)CCSC1CCN(c2cc(C(F)(F)F)cc(C(F)(F)F)c2)C1 (stereo not shown) [Example 50, 3-({1-[3,5-bis(trifluoromethyl)phenyl]pyrrolidin-3-yl}sulfanyl)propanoic acid]	–
45	100 ± 20.2 % of initial/Control	42.5 ± 3.3 % of initial/Control	36.0 ± 3.2 % of initial/Control	73.8 ± 19.3 % of initial/Control	O=C(O)CSC1CCN(c2cc(C(F)(F)F)cc(C(F)(F)F)c2)C1 (stereo not shown) [Example 1, ({1-[3,5-bis(trifluoromethyl)phenyl]pyrrolidin-3-yl}sulfanyl)acetic acid]	–

Source: patent publication US8338622B2, “Heterocyclic compound” (Takeda Pharmaceutical Company Limited, priority 2008, dated 2012)
